Results taken from patent US10259786B2, “Psychotropic agents and uses thereof” (LB PHARMACEUTICALS INC., priority 2016, dated 2019).

Assays:
D1 receptor = D1 receptor (Homo sapiens (Human), UniProt P21728); settings: D1 receptor subtype; cited from earlier work
[1] = 2014 study, 30 psychiatric drugs tested; cited from earlier work
D4 receptor = D4 receptor (Homo sapiens (Human), UniProt P21917); settings: D4 receptor subtype; cited from earlier work
D5 receptor = D5 receptor (Homo sapiens (Human), UniProt P21918); settings: D5 receptor subtype; cited from earlier work
Sequence of D5 receptor (P21918 whole entry): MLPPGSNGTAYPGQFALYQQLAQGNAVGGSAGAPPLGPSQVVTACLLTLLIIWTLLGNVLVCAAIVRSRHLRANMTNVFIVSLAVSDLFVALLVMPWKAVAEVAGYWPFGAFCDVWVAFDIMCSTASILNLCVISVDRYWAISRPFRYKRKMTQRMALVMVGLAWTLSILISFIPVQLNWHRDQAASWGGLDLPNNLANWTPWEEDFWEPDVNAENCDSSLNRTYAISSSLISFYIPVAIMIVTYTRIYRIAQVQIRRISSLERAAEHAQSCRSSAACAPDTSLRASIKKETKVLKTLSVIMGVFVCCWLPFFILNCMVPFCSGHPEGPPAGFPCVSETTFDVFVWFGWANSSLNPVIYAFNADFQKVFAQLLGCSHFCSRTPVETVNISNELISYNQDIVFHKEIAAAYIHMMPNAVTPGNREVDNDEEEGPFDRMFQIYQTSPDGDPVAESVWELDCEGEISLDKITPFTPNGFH

PCP-treated rats = test: Novel Object Recognition (NOR) assay, sub-chronic PCP; assay type: in vivo, rat; settings: PO; for difference between novel and familiar object exploration time: 3 hours post-dose, all doses save one; for known object exploration behavior in rats treated with PCP: compared to untreated rats
Experimental: Efficacy of Compounds 102 and 103 was evaluated in rats in a Novel Object Recognition (NOR) assay, a well-established model recapitulating cognitive and negative aspects of the PANSS scale of schizophrenia. In this assay, animals were treated for several weeks with a low dose of phencyclidine (PCP) to impair the ability of the rat to discern between novel and familiar objects. Typically rats, like humans, would spend more time exploring a novel object than a familiar one.
Rats (n=10/group) were dosed with 2 mg/kg intraperitoneal twice a day (i.p., b.i.d.) for seven days followed by 7 days drug free. […] Novel object exploration time was measured for the test subjects from a sub-chronic PCP NOR study in rats (n=10/group). The differences in exploration time between novel (Tnovel¬) and familiar (Tfamliar) objects are depicted in FIG. 1A (*: p<0.05; and **: p<0.01).

Sequence of D1 receptor (P21728 whole entry): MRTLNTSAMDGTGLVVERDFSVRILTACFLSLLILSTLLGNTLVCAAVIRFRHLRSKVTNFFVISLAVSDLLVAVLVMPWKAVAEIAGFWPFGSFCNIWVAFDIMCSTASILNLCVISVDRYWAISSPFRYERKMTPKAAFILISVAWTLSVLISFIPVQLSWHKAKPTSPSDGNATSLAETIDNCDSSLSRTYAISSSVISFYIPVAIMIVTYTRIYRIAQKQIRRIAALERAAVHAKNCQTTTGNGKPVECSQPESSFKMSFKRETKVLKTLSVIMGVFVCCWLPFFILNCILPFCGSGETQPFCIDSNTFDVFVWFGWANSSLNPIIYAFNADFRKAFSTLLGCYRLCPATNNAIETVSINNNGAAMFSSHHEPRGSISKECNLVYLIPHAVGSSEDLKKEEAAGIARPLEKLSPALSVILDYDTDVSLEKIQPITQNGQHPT
Sequence of D4 receptor (P21917 whole entry): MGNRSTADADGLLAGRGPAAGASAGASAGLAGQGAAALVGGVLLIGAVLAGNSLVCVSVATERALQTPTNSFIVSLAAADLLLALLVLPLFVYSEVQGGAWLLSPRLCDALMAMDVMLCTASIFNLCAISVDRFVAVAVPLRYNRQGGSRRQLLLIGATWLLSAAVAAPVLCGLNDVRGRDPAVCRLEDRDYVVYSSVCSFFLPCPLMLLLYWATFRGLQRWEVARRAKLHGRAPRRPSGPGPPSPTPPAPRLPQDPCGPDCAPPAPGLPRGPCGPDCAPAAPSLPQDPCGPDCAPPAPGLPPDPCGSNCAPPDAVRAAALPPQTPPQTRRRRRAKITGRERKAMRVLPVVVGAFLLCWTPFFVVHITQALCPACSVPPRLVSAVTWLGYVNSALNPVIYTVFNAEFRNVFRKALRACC

SMILES | affinity (D1 receptor) | passive diffusion across a PAMPA membrane (Pe) [1] | affinity (D4 receptor) | affinity (D5 receptor) | difference between novel and familiar object exploration time (PCP-treated rats) | known object exploration behavior in rats treated with PCP (PCP-treated rats)
CCN1CCCC1CNC(=O)c1cc(S(=O)(=O)CC)c(N)cc1OC (centres unmarked) [Amisulpride, 4-amino-N-(((1-ethyl-2-pyrrolidinyl)methyl)-5-(ethylsulfonyl))-2-methoxybenzamide] | without any affinity | lowest of 30 psychiatric drugs tested | without any affinity | without any affinity |  | 
CCN1CCCC1CNC(=O)c1cc(S(=O)(=O)CC)c(NC)cc1OC (centres unmarked) [Compound 102] |  |  |  |  | increased | able to restore known object exploration behavior in rats treated with PCP to levels similar to untreated rats
CCN1CCC[C@H]1CNC(=O)c1cc(S(=O)(=O)CC)c(NC)cc1OC [Compound 103, ((S)-4-methylamino-N-((1-ethyl-2-pyrrolidinyl)methyl)-5-(ethylsulfonyl))-2-methoxybenzamide] |  |  |  |  | increased | able to restore known object exploration behavior in rats treated with PCP to levels similar to untreated rats
